The record followed here is patent US7045526B2, “Substituted 4-amino-2-aryl-tetrahydroquinazolines, their preparation, their use and pharmaceutical preparations comprising them” (Sanofi-Aventis Deutschland GmbH, priority 1999, dated 2006).

For this experiment, the target named is T1, soluble guanylate cyclase (sGC) (Bos taurus, UniProt P16068+P19687).
T1 construct: The sGC employed had been isolated from bovine lung; from tissue; host or cells: bovine lung
T1 sequence (P16068 1-619): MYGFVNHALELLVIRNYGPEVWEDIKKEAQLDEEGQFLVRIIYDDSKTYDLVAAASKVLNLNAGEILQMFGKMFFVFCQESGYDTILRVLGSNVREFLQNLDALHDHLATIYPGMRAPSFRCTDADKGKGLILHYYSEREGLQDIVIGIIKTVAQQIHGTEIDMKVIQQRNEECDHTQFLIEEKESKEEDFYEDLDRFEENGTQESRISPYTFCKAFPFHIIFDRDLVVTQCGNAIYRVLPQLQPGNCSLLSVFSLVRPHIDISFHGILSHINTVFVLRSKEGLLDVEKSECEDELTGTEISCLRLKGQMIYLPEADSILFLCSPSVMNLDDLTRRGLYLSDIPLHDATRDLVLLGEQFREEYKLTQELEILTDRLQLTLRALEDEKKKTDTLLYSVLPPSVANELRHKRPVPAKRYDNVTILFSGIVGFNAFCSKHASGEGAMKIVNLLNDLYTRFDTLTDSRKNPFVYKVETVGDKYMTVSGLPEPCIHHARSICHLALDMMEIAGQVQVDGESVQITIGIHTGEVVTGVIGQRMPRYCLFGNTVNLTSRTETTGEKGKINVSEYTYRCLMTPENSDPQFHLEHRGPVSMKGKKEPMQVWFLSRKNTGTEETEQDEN
T1 sequence (P19687 1-691): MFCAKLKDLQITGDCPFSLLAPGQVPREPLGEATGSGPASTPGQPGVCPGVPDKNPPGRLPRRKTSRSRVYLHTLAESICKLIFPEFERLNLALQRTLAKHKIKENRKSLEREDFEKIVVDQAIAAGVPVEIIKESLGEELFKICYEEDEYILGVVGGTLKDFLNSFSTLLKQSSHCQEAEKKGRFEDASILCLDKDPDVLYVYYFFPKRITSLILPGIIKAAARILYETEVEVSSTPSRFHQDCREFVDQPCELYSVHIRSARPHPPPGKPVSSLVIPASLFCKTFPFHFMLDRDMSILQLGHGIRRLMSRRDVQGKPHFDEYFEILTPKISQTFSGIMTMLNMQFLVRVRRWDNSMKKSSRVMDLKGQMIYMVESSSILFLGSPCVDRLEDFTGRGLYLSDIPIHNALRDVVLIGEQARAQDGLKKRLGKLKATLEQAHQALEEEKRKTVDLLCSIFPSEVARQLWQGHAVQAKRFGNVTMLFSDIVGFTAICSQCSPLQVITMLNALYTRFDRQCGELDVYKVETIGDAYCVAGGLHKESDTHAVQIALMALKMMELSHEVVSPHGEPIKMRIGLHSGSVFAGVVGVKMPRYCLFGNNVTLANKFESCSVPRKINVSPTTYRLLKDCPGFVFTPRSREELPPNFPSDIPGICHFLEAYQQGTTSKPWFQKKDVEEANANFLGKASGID
Description: Activation of soluble guanylate cyclase (cGMP enzyme immunoassay). Format: biochemical. The settings on record: test substance 50 μM; sGC isolated from bovine lung; 37° C., 15 to 20 minutes; [cGMP]test substance/[cGMP]control (basal enzyme activity). The method, then:
Activation of Soluble Guanylate Cyclase
The activation of soluble guanylate cyclase (sGC), which catalyzes the conversion of guanosine triphosphate (GTP) to cyclic guanosine monophosphate (cGMP) and pyrophosphate, by the compounds according to the invention was quantified with the aid of an enzyme immunoassay (EIA) from Amersham. For this, the test substances were first incubated with sGC in microtiter plates and then the quantity of the resulting cGMP was determined.
The sGC employed had been isolated from bovine lung (see Methods in Enzymology, Volume 195, p. 377). The test solutions (100 μl per well) contained 50 mM triethanolamine (TEA) buffer (pH 7.5), 3 mM MgCl2, 3 mM reduced glutathione (GSH), 0.1 mM GTP, 1 mM 3-isobutyl-1-methylxanthine (IBMX), suitably diluted enzyme solution and the test substance or, in the control experiments, solvent. […] The absorption of the samples was measured at 450 nm (reference wavelength 620 nm) in a microtiter plate reading apparatus. The cGMP concentration was determined by means of a calibration curve, which was obtained under the same experimental conditions. The activation of the sGC by a test substance is given as n-fold stimulation of the basal enzyme activity which was found in the control experiments (with solvent instead of test substance), calculated according to the formula: n-fold stimulation=[cGMP]test substance/[cGMP]control.

Consider `CS(=O)(=O)O.O[C@H]1CC[C@H](Nc2nc(-c3ccc(Cl)cc3)nc3c2CCCC3)CC1` [Example 26, 2-(4-Chlorophenyl)-4-(trans-4-hydroxycyclohexylamino)-5,6,7,8-tetrahydroquinazoline methanesulfonic acid salt], for which the “n-fold stimulation (at c = 50 μM)” value is listed as 28 n-fold.
